Measurements: patent publication US7855288B2, “Pyrrolo [1,2-d] [1,2-4] triazine as inhibitors of c-Jun N terminal kinases (JNK) and p-38 kinases” (Novartis AG, priority 2004, dated 2010)

What was measured:
p38α kinase = target: T1, p38α kinase (Homo sapiens, UniProt Q16539); test: p38α assay (ADP release coupled to NADH oxidation); format: biochemical; conditions: p38 kinase IC50 class, Table 1; read-out: p38α inhibition
T1 construct: purchased Upstate
Protocol: The p38α assay employed is based on measurement of ADP released in the reaction of interest through NADH oxidation obtained by coupling with pyruvate kinase and lactate dehydrogenase reactions. The assays were performed in 384-well UV-plates. The final volume was 25 uL prepared from the addition of 2.5 uL compound dissolved in 10% DMSO, 17.5 uL of assay buffer and 5 uL of ATP. Assay buffer contains the following reagents to give final concentration in the assay: 25 mM HEPES, 20 mM 2-glycerophosphate, pH 7.6, 10 mM MgCl2, 0.1 mM sodium orthovanadate, 0.5 mM phosphoenolpyruvate, 0.12 mM NADH, 3.1 mg/ml LDH, 6.67 mg/ml pyruvate kinase, 0.25 mM peptide substrate, 2 mM DTT, 0.005% Tween 80 and 20 nM p38α kinase from Upstate. Test compounds are preincubated with p38α kinase for 60 min and the reaction started by addition of ATP to 0.15 mM final concentration. Reaction rates were measured at 340 nm using SpectraMax plate-reading spectrophotometer for 10 min at 37° C. Inhibition data were analyzed by non-linear least-squares regression using SigmaPlot.

human recombinant Jnk2 = human recombinant Jnk2 (Homo sapiens, UniProt P45984); test: JNK enzymatic assay (33P incorporation into peptide); format: biochemical; conditions: JNK2 kinase IC50 class, Table 1
Protocol: In a final reaction volume of 20 μL, 5 nM human recombinant Jnk2 was incubated in the absence or presence of putative JNK inhibitors in increasing concentrations with 25 mM HEPES pH 7.5, 20 mM p-glycerophosphate, 10 mM MgCl2, 0.1 mM sodium orthovanadate, 0.005% Tween® 80, 10 uM [γ-^33P-ATP], 500 μM IPTTPITTTYFFFKKK peptide substrate and 2 mM DTT. The reaction was initiated by the addition of the [g-^33P-ATP]. After incubation for 20 minutes at 30° C., the aliquots were transferred onto P30/GF filtermats (PerkinElmer). Each filtermat washed four times in 100 ml 0.5% phosphoric acid, 0.5 mM pyrophosphate, then twice in 50 ml ethanol, dried and sealed into bag containing 5 ml of OptiPhase “SuperMix” liquid scintillation cocktail (PerkinElmer). Radioactivity incorporated into peptide was quantified on Trilux 1450 Microbeta plate-reader. IC50 values were calculated using SigmaPlot.

T1 sequence (Q16539 whole entry): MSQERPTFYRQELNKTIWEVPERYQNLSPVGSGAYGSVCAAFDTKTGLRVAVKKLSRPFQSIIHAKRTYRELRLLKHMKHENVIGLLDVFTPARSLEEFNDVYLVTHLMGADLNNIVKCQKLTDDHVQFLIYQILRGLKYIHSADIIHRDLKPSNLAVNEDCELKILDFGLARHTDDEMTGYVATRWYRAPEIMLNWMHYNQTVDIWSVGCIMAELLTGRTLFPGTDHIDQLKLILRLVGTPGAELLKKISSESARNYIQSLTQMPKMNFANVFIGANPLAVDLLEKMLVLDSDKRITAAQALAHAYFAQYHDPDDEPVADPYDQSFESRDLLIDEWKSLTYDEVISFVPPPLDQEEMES
Sequence of human recombinant Jnk2 (P45984 whole entry): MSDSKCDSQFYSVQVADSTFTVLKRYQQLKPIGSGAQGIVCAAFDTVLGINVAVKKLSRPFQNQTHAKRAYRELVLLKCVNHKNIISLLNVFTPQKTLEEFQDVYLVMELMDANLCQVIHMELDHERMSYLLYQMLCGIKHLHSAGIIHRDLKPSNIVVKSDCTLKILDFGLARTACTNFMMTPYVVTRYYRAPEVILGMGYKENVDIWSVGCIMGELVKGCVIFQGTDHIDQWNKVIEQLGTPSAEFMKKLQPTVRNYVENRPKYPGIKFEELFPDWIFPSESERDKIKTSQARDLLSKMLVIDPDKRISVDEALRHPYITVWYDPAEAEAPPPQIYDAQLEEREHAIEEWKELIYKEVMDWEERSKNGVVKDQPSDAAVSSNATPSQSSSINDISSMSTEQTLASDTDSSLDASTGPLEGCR

Row | IC50 (p38α kinase) [nM] | IC50 (human recombinant Jnk2) [nM] | SMILES
1 | 1000 to 10000 | 1000 to 10000 | CCOC(=O)c1cc2cnnc(Nc3cc(C(=O)NC4CC4)ccc3OC)n2c1C [Compound 1, 4-(5-Cyclopropylcarbamoyl-2-methoxy-phenylamino)-6-methyl-pyrrolo[1,2-d][1,2,4]triazine-7-carboxylic acid ethyl ester]
2 | 1000 to 10000 |  | CCOC(=O)c1cc2cnnc(Nc3cc(-c4nnc[nH]4)ccc3C)n2c1C [Compound 2, 4-[2-Methyl-5-(4H-[1,2,4]triazol-3-yl)-phenylamino]-6-methyl-pyrrolo[1,2-d][1,2,4]triazine-7-carboxylic acid ethyl ester]
3 | < 1000 | < 1000 | CCOC(=O)c1cc2cnnc(Nc3cc(C(=O)NC4CC4)ccc3C)n2c1C [Compound 3, 4-(5-Cyclopropylcarbamoyl-2-methyl-phenylamino)-6-methyl-pyrrolo[1,2-d][1,2,4]triazine-7-carboxylic acid ethyl ester]
4 | < 1000 | < 1000 | Cc1ccc(C(=O)NC2CC2)cc1Nc1nncc2cc(C(=O)NCc3ccccc3)c(C)n12 [Compound 4, 4-(5-Cyclopropylcarbamoyl-2-methyl-phenylamino)-6-methyl-pyrrolo[1,2-d][1,2,4]triazine-7-carboxylic acid benzylamide]
5 | < 1000 | < 1000 | CCOC(=O)Nc1ccc(C)c(Nc2nncc3cc(C(=O)OCC)c(C)n23)c1 [Compound 5, 4-(5-Ethoxycarbonylamino-2-methyl-phenylamino)-6-methyl-pyrrolo[1,2-d][1,2,4]triazine-7-carboxylic acid ethyl ester]
6 | 1000 to 10000 | 1000 to 10000 | CCOC(=O)c1cc2cnnc(Nc3ccc(Cl)cc3)n2c1C [Compound 6]
7 | < 1000 | < 1000 | CNC(=O)c1cc2cnnc(Nc3cc(C(=O)NC4CC4)ccc3C)n2c1C [Compound 7]
8 | < 1000 | 1000 to 10000 | Cc1ccc(C(=O)NC2CC2)cc1Nc1nncc2cc(C(=O)NC3CC3)c(C)n12 [Compound 8]
9 | 1000 to 10000 | 1000 to 10000 | CCNC(=O)c1ccc(C)c(Nc2nncc3cc(C(=O)OCC)c(C)n23)c1 [Compound 9]
10 |  | 1000 to 10000 | CCOC(=O)c1cc2cnnc(Nc3ccc(C(=O)OC)cc3)n2c1C [Compound 10]
11 | 1000 to 10000 | 1000 to 10000 | CCOC(=O)c1cc2cnnc(Nc3cccc(C(=O)NC4CC4)c3)n2c1C [Compound 11]
12 | 1000 to 10000 | 1000 to 10000 | CCOC(=O)c1cc2cnnc(Nc3cc(C(=O)Nc4ccccc4)ccc3C)n2c1C [Compound 12]
13 |  | 1000 to 10000 | CCOC(=O)c1cc2cnnc(Nc3cc(-c4ncco4)ccc3C)n2c1C [Compound 13]
14 | 1000 to 10000 | 1000 to 10000 | CCOC(=O)c1cc2cnnc(Nc3cc(NC(=O)OC(C)C)ccc3C)n2c1C [Compound 14]
15 | 1000 to 10000 | 1000 to 10000 | CCOC(=O)c1cc2cnnc(Nc3ccccc3)n2c1C [Compound 15]
16 | 1000 to 10000 | 1000 to 10000 | CCOC(=O)c1cc2cnnc(Nc3ccccc3C)n2c1C [Compound 16]
17 |  | 1000 to 10000 | CCOC(=O)c1cc2cnnc(Nc3cccc(C(=O)O)c3)n2c1C [Compound 17]
18 | 1000 to 10000 | 1000 to 10000 | CCOC(=O)c1cc2cnnc(Nc3cc(C(=O)O)ccc3C)n2c1C [Compound 18]
19 | > 10000 | 1000 to 10000 | CCOC(=O)c1cc2cnnc(Nc3cc(NC(C)=O)ccc3C)n2c1C [Compound 19]
20 | 1000 to 10000 | 1000 to 10000 | CCOC(=O)c1cc2cnnc(Nc3cc(C(=O)NCc4ccccc4)ccc3C)n2c1C [Compound 20]
21 |  | > 10000 | CCOC(=O)c1cc2cnnc(Nc3cc(C(=O)NC(C)C)ccc3C)n2c1C [Compound 21]
22 |  | > 10000 | CCOC(=O)c1cc2cnnc(Nc3cc(C(=O)N4CCOCC4)ccc3C)n2c1C [Compound 22]
23 |  | > 10000 | CCOC(=O)c1cc2cnnc(Nc3cc(C(N)=O)ccc3C)n2c1C [Compound 23]
24 | > 10000 | > 10000 | CCOC(=O)c1cc2cnnc(Nc3cc(N)ccc3C)n2c1C [Compound 24]
